Patent publication US20240150369A1, “CYCLIN-DEPENDENT KINASE INHIBITING COMPOUNDS FOR THE TREATMENT OF MEDICAL DISORDERS” (G1 Therapeutics, Inc., priority 2020, published 2024)

Legend:
Type in all cases: biochemical
CDK9/Cyclin T1 = CDK9/Cyclin T1 (Homo sapiens (Human), UniProt P50750); assay: CDK9/Cyclin T1 kinase assay (Nanosyn, Caliper microfluidic); details: 12-point dose-response, singlicate, at Km for ATP; ATP 10 μM; 17 hr
Protocol: (§1) Selected compounds disclosed herein were tested in kinase assays by Nanosyn (Santa Clara, CA) to determine their inhibitory effect on these CDKs. The assays were performed using microfluidic kinase detection technology (Caliper Assay Platform). The compounds were tested in 12-point dose-response format in singlicate at Km for ATP. Specifics of each assay are as described below:
CDK9/Cyclin T1: Enzyme concentration: 5 nM; ATP concentration: 10 μM; Incubation time: 17 hr.

CDK1/Cyclin B1 = CDK1/Cyclin B1 (Homo sapiens (Human), UniProt P06493); assay: CDK1/Cyclin B1 kinase assay (Nanosyn, Caliper microfluidic); details: 12-point dose-response, singlicate, at Km for ATP; ATP 40 μM; 3 hr
CDK1/Cyclin B1, sequence (P06493 whole entry): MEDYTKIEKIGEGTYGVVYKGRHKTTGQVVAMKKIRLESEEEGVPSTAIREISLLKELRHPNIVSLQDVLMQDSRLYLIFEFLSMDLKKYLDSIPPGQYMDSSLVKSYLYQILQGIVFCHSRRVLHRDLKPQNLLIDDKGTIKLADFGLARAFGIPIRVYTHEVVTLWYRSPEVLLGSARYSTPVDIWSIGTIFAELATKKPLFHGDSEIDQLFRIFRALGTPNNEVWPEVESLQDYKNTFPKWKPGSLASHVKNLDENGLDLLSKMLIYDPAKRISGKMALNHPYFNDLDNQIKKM
CDK1/Cyclin B1, sequence (P14635 whole entry partner): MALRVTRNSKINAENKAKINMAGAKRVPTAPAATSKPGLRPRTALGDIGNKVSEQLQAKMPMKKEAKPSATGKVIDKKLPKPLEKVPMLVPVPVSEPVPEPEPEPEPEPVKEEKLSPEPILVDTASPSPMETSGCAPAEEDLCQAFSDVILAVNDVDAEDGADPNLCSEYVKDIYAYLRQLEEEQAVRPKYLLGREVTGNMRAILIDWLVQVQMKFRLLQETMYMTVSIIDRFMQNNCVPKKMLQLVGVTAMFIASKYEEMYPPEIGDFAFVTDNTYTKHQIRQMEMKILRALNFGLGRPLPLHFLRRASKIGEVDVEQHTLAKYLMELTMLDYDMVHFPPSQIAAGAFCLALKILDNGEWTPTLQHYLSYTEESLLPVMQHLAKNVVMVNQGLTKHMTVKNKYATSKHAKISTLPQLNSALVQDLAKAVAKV
Protocol: as §1
CDK1/Cyclin B1: Enzyme concentration: 0.08 nM; ATP concentration: 40 μM; Incubation time: 3 hr.

CDK2/Cyclin A = CDK2/Cyclin A (Homo sapiens (Human), UniProt P24941); assay: CDK2/Cyclin A kinase assay (Nanosyn, Caliper microfluidic); details: 12-point dose-response, singlicate, at Km for ATP; ATP 50 μM; 3 hr
Protocol: as §1
CDK2/Cyclin A: Enzyme concentration: 0.1 nM; ATP concentration: 50 μM; Incubation time: 3 hr.

CDK4/Cyclin D1 = CDK4/Cyclin D1 (Homo sapiens (Human), UniProt P11802); assay: CDK4/Cyclin D1 kinase assay (Nanosyn, Caliper microfluidic); details: 12-point dose-response, singlicate, at Km for ATP; ATP 200 μM; 3 hr
CDK4/Cyclin D1, sequence (P11802 whole entry): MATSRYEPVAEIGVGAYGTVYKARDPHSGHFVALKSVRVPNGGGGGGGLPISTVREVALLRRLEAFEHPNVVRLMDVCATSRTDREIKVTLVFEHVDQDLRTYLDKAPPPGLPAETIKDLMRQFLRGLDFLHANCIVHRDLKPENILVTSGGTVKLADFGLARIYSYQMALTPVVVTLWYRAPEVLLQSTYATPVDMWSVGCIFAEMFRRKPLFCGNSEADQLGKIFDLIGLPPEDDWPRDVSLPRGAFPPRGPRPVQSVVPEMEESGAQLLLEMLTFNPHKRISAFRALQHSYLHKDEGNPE
CDK4/Cyclin D1, sequence (P24385 whole entry partner): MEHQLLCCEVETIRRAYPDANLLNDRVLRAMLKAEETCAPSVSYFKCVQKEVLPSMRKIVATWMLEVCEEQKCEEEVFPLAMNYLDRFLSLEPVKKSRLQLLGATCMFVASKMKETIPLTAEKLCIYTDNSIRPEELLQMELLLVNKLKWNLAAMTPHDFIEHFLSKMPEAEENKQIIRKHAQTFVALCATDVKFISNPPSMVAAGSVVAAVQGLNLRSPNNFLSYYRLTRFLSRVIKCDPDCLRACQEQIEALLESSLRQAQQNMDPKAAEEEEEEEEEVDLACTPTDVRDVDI
Protocol: as §1
CDK4/Cyclin D1: Enzyme concentration: 1 nM; ATP concentration: 200 μM; Incubation time: 3 hr.

CDK7 = CDK7 (Homo sapiens (Human), UniProt P50613); assay: CDK7 kinase assay (Nanosyn, Caliper microfluidic); details: 12-point dose-response, singlicate, at Km for ATP
CDK7, sequence (P50613 whole entry): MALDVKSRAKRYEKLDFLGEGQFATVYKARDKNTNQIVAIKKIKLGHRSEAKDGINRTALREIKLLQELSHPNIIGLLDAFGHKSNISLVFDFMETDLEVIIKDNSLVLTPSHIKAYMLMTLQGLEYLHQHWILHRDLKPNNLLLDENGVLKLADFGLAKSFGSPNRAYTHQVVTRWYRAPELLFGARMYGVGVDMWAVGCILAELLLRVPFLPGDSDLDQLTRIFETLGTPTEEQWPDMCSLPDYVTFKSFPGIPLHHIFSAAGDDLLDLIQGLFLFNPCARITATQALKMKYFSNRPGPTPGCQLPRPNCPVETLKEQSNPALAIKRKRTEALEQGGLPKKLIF
CDK7, sequence (P51946 whole entry partner): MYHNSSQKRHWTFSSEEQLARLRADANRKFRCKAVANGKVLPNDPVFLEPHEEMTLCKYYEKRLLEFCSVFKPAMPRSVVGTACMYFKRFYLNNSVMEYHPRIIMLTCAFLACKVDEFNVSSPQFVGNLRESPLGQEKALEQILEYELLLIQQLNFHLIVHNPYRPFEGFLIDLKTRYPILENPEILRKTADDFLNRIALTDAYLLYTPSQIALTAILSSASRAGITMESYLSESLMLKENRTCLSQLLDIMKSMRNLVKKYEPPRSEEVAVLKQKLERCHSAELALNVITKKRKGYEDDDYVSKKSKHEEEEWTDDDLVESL
CDK7, sequence (P51948 whole entry partner): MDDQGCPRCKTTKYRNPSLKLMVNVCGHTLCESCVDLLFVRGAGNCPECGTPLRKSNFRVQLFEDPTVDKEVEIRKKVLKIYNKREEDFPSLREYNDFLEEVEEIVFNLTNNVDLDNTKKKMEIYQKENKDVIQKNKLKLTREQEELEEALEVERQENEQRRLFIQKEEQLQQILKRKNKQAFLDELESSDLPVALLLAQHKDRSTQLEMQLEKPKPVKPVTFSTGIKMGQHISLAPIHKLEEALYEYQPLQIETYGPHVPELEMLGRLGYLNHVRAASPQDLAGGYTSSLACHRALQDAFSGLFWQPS
Protocol: as §1, with “ATP.” for “ATP. Specifics of each assay are as described below:”

CDK2/Cyclin E = CDK2/Cyclin E (Homo sapiens (Human), UniProt P24941); assay: CDK2/Cyclin E kinase assay (Nanosyn, Caliper microfluidic); details: 12-point dose-response, singlicate, at Km for ATP; ATP 100 μM; 3 hr
Protocol: as §1
CDK2/Cyclin E: Enzyme concentration: 0.15 nM; ATP concentration: 100 μM; Incubation time: 3 hr.

CDK6/Cyclin D3 = CDK6/Cyclin D3 (Homo sapiens (Human), UniProt Q00534); assay: CDK6/Cyclin D3 kinase assay (Nanosyn, Caliper microfluidic); details: 12-point dose-response, singlicate, at Km for ATP; ATP 300 μM; 3 hr
CDK6/Cyclin D3, sequence (Q00534 whole entry): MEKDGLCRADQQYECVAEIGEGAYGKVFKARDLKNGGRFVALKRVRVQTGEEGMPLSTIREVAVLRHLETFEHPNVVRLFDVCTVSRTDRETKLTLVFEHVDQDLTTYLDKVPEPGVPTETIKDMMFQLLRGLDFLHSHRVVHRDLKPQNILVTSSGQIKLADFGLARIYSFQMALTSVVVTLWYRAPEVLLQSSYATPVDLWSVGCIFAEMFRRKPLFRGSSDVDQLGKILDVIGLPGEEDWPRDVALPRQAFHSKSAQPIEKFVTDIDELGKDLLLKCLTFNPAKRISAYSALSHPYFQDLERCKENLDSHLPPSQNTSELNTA
CDK6/Cyclin D3, sequence (P30281 whole entry partner): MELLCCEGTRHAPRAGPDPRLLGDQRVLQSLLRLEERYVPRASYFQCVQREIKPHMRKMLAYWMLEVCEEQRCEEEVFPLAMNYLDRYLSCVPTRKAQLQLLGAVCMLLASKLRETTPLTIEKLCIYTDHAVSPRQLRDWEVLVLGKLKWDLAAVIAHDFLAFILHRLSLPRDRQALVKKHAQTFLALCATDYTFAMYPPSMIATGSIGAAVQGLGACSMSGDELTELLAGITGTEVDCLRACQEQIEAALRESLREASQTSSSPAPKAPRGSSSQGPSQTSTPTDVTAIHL
Protocol: as §1
CDK6/Cyclin D3: Enzyme concentration: 2 nM; ATP concentration: 300 μM; Incubation time: 3 hr.

CDK3-CYCLIN-E = CDK3-CYCLIN-E (Homo sapiens (Human), UniProt Q00526); assay: CDK3-Cyclin-E kinase assay (Nanosyn, Caliper microfluidic); details: 12-point dose-response, singlicate, at Km for ATP
Protocol: as §1, with “ATP.” for “ATP. Specifics of each assay are as described below:”

CDK9/Cyclin T1, sequence (P50750 whole entry): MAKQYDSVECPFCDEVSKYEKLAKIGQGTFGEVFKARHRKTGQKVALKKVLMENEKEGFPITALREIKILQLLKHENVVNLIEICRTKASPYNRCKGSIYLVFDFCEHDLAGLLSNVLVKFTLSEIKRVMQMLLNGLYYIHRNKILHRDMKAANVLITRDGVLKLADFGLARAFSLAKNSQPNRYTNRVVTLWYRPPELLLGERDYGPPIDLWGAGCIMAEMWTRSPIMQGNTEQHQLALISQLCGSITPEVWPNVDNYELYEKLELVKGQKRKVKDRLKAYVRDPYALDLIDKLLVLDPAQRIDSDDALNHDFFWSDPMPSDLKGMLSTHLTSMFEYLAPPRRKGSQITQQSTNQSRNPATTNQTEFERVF
CDK9/Cyclin T1, sequence (O60563 whole entry partner): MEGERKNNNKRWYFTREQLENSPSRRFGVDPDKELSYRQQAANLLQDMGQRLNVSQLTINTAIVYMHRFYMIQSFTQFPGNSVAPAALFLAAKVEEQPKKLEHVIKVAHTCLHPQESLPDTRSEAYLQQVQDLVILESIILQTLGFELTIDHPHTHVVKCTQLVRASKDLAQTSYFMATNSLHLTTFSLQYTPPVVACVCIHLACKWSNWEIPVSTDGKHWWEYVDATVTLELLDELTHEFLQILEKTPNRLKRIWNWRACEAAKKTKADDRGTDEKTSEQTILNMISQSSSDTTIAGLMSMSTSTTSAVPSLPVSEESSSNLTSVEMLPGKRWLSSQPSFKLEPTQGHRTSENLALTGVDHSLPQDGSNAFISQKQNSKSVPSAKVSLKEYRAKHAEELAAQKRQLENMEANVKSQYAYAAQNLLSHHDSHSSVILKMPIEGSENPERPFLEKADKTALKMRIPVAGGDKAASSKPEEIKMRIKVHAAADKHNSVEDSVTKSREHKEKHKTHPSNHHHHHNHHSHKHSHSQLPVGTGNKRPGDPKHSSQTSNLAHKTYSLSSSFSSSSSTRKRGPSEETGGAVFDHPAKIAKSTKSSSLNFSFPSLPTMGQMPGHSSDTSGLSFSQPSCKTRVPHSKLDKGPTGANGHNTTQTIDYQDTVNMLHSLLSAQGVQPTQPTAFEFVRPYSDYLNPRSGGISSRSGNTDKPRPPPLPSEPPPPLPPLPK

Structure (SMILES)	IC50 (CDK9/Cyclin T1)	IC50 (CDK1/Cyclin B1)	IC50 (CDK2/Cyclin A)	IC50 (CDK4/Cyclin D1)	IC50 (CDK7)	IC50 (CDK2/Cyclin E)	IC50 (CDK6/Cyclin D3)	IC50 (CDK3-CYCLIN-E)
NS(=O)(=O)c1ccc(Nc2ncc3cc4n(c3n2)C2(C=NN4)CCCCC2)cc1 [Compound 4, 4-((1′H-spiro[cyclohexane-1,4′-pyrimido[5′,4′:4,5]pyrrolo[2,1-c][1,2,4]triazin]-7′-yl)amino)benzenesulfonamide]	11 nM	89 nM	1 nM	53 nM	230 nM	1 nM	170 nM	5 nM
CN1N=CC2(CCCCC2)n2c1cc1cnc(Nc3ccc(S(N)(=O)=O)cc3)nc12 [Compound 5, 4-((1′-methyl-1′H-spiro[cyclohexane-1,4′-pyrimido[5′,4′:4,5]pyrrolo[2,1-c][1,2,4]triazin]-7′-yl)amino)benzenesulfonamide]	26 nM	11 nM	2 nM	41 nM	875 nM	3 nM	231 nM	23 nM
NS(=O)(=O)c1ccc(Nc2ncc3cc4n(c3n2)C2(CCCCC2)C(=O)N[C@@H]4CF)cc1 [Compound 23, (S)-4-((6′-(fluoromethyl)-8′-oxo-7′,8′-dihydro-6′H-spiro[cyclohexane-1,9′-pyrazino[1′2′:1,5]pyrrolo[2,3-d]pyrimidin]-2′-yl)amino)benzenesulfonamide]	11 nM	20 nM	1 nM	19 nM	682 nM	1 nM	45 nM	6 nM
CC1C(=O)Nc2cc3cnc(Nc4ccc(S(N)(=O)=O)cc4)nc3n2C12CCCCC2 (stereo not shown) [Compound 42, 4-((8′-methyl-7′-oxo-7′,8′-dihydro-6′H-spiro[cyclohexane-1,9′-pyrrolo[1,5-a:2,3-d′]dipyrimidin]-2′-yl)amino)benzenesulfonamide]	6 nM	7 nM	1 nM			1 nM		10 nM
CC1C(=O)N(C)c2cc3cnc(Nc4ccc(S(N)(=O)=O)cc4)nc3n2C12CCCCC2 (stereo not shown) [Compound 43, 4-((6′,8′-dimethyl-7′-oxo-7′,8′-dihydro-6′H-spiro[cyclohexane-1,9′-pyrrolo[1,5-a:2,3-d′]dipyrimidin]-2′-yl)amino)benzenesulfonamide]	21 nM	33 nM	4 nM			4 nM		29 nM
CC1=NNc2cc3cnc(Nc4ccc(S(N)(=O)=O)cc4)nc3n2C12CCCCC2 [Compound 45, 4-((3′-methyl-1′H-spiro[cyclohexane-1,4′-pyrimido[5′,4′:4,5]pyrrolo[2,1-c][1,2,4]triazin]-7′-yl)amino)benzenesulfonamide]	240 nM	108 nM	16 nM	436 nM	> 1000 nM	19 nM	> 1000 nM	73 nM
CC1=NN(C)c2cc3cnc(Nc4ccc(S(N)(=O)=O)cc4)nc3n2C12CCCCC2 [Compound 46, 4-((1′,3′-dimethyl-1′H-spiro[cyclohexane-1,4′-pyrimido[5′,4′:4,5]pyrrolo[2,1-c][1,2,4]triazin]-7′-yl)amino)benzenesulfonamide]	9 nM	14 nM	2 nM	22 nM	723 nM	2 nM	83 nM	13 nM
CN1CCN(S(=O)(=O)c2ccc(Nc3ncc4cc5n(c4n3)C3(CCCCC3)C(=O)NN5)cc2)CC1 [Compound 49, 7′-((4-((4-methylpiperazin-1-yl)sulfonyl)phenyl)amino)-1′,2′-dihydro-3′H-spiro[cyclohexane-1,4′-pyrimido[5′,4′:4,5]pyrrolo[2,1-c][1,2,4]triazin]-3′-one]	199 nM	478 nM	45 nM	253 nM	242 nM	10 nM	480 nM	115 nM
CN1CCN(S(=O)(=O)c2ccc(Nc3ncc4cc5n(c4n3)C3(CCCCC3)C(=O)NC5O)cc2)CC1 (stereo not shown) [Compound 50, 6′-hydroxy-2′-((4-((4-methylpiperazin-1-yl)sulfonyl)phenyl)amino)-6′,7′-dihydro-8′H-spiro[cyclohexane-1,9′-pyrazino[1′,2′:1,5]pyrrolo[2,3-d]pyrimidin]-8′-one]	2 nM	78 nM	2 nM	113 nM	118 nM	4 nM	51 nM	28 nM
CN1CCN(S(=O)(=O)c2ccc(Nc3ncc4cc5n(c4n3)C3(CCCCC3)CC(=O)N5)cc2)CC1 [Compound 51, 2′-((4-((4-methylpiperazin-1-yl)sulfonyl)phenyl)amino)-6′H-spiro[cyclohexane-1,9′-pyrrolo[1,5-a:2,3-d′]dipyrimidin]-7′(8′H)-one]	5 nM	31 nM	4 nM	41 nM	66 nM	5 nM	63 nM	23 nM
CN1CCN(C(=O)c2ccc(Nc3ncc4cc5n(c4n3)C3(CCCCC3)C(=O)NN5)cc2)CC1 [Compound 52, 7′-((4-(4-methylpiperazine-1-carbonyl)phenyl)amino)-1′,2′-dihydro-3′H-spiro[cyclohexane-1,4′-pyrimido[5′,4′:4,5]pyrrolo[2,1-c][1,2,4]triazin]-3′-one]	318 nM	242 nM	18 nM	27 nM	> 1000 nM	4.5 nM	75 nM	75 nM
CNC(=O)Nc1ccc(Nc2ncc3cc4n(c3n2)C2(CCCCC2)C(=O)NN4)cc1 [Compound 68, 1-methyl-3-(4-((3′-oxo-2′,3′-dihydro-1′H-spiro[cyclohexane-1,4′-pyrimido[5′,4′:4,5]pyrrolo[2,1-c][1,2,4]triazin]-7′-yl)amino)phenyl)urea]	284 nM	> 1000 nM	841 nM	595 nM		349 nM	> 1000 nM	
CC1C(=O)Nc2cc3cnc(Nc4ccc(C(=O)N5CCN(C)CC5)cc4)nc3n2C12CCCCC2 (stereo not shown) [Compound 71, 8′-methyl-2′-((4-(4-methylpiperazine-1-carbonyl)phenyl)amino)-6′H-spiro[cyclohexane-1,9′-pyrrolo[1,5-a:2,3-d′]dipyrimidin]-7′(8′H)-one]	9 nM	15 nM	4 nM	9 nM		3 nM	15 nM	
CS(=N)(=O)c1ccc(Nc2ncc3cc4n(c3n2)C2(CCCCC2)C(=O)NN4)cc1 (stereo not shown) [Compound 79, 7′-((4-(S-methylsulfonimidoyl)phenyl)amino)-1′,2′-dihydro-3′H-spiro[cyclohexane-1,4′-pyrimido[5′,4′:4,5]pyrrolo[2,1-c][1,2,4]triazin]-3′-one]	89 nM	146 nM	16 nM	172 nM		5 nM	291 nM	
Nc1ccc(S(=O)(=O)Nc2ncc3cc4n(c3n2)C2(CCCCC2)C(=O)NN4)cc1 [Compound 84, 4-amino-N-(3′-oxo-2′,3′-dihydro-1′H-spiro[cyclohexane-1,4′-pyrimido[5′,4′:4,5]pyrrolo[2,1-c][1,2,4]triazin]-7′-yl)benzenesulfonamide]	> 1000 nM	> 1000 nM	571 nM	> 1000 nM		207 nM	> 1000 nM	
Nc1ccc(S(=O)(=O)Nc2ncc3cc4n(c3n2)C2(CCCCC2)CNC4=O)cc1 [Compound 91, 4-amino-N-(6′-oxo-7′,8′-dihydro-6′H-spiro[cyclohexane-1,9′-pyrazino[1′,2′:1,5]pyrrolo[2,3-d]pyrimidin]-2′-yl)benzenesulfonamide]	183 nM	> 1000 nM	322 nM	361 nM		287 nM	920 nM	
